What was measured:
[1] = system: SIRPα; assay: SIRPα ITIMs phosphorylation and SHP-1 association in macrophages activated by proinflammatory stimuli; type: cell-based; conditions: macrophage activation by proinflammatory stimuli or cancer therapies
Excerpt: As shown, proinflammatory stimuli (TLR agonists, proinflammatory cytokines IL-1β, IL-6, IL-12, IL-17, IL-18, TNFα, IFNγ, etc., and cancer therapies) induce SIRPα ITIMs phosphorylation and exclusive association of SHP-1 (not SHP-2). Anti-inflammatory cytokine stimulation also induces SIRPα ITIMs phosphorylation but association with SHP-2.

[2] = system: macrophages; assay: Macrophage expression of cell surface antigen presentation machinery with αTLR and cancer cell ligation; type: cell-based, human and murine; conditions: αTLR-induced, in presence of cancer cell ligation
Experimental: (§1) After incubation for 15 minutes at 37° C., cells were gently washed to remove the majority of SW620, followed by lysis of macrophage using Hank's buffer (pH 7.2) containing 1% Triton and 1 mM PMSF. Protein tyrosine phosphatase (PTP) activity was assayed with […] Hank's buffer at 37° C.
(§2) In vitro assays. Macrophage response to αTLR was assayed in the presence of cancer cell ligation and with or without TK inhibitor. Macrophage SHP-1 activity (PTP activity), macrophage expression of antigen presentation machinery and proinflammatory cytokines were assayed.
(§3) The same in vitro macrophage stimulation in the present of cancer cell ligation experimental system as in Example 1 was used.

[3] = system: LLC lung cancer; assay: LLC tumor treatment and TME analyses; type: in vivo, mice; conditions: combined with αTLR
Experimental: Three types of solid tumors were tested: 1) MC38 colorectal carcinoma, 2) KPC pancreatic ductal adenocarcinoma, and 3) LLC lung cancer. Tumors were subcutaneously engrafted (s.c.), and treatments started when palpable tumors formed >=200 mm^3. […] In most experiments, TKi and αTLR agonist were together suspended in 500 μl PBS and administered via s.c. at a location distant form tumor. The intermittent treatment scheme was designed to administrate the first cycle, 2× pulse administrations (d1 and d2), an intermittent period (3-7 days), followed by a second cycle treatment.
In vivo tests for anti-tumor efficacy.

[4] = system: MC38, KPC and LLC tumor models; assay: Syngeneic murine tumor models, TKi alone or with proinflammatory activators; type: in vivo, mice; conditions: for anti-tumor efficacy, alone/monotherapy: TKi alone
[5] = system: macrophage SHP-1 activity; assay: Macrophage SHP-1 (PTP) activity induced by αTLR and cancer cell ligation; type: cell-based, human; conditions: induced by αTLR (CpG, PolyIC, R848) and SW620 cancer cell ligation
Experimental: . After incubation for 15 minutes at 37° C., cells were gently washed to remove the majority of SW620, followed by lysis of macrophage using Hank's buffer (pH 7.2) containing 1% Triton and 1 mM PMSF. Protein tyrosine phosphatase (PTP) activity was assayed with […] Hank's buffer at 37° C.
as §2, §3
Specifically, an in vitro macrophage functional assay was set up in the presence of cancer cell (SW620) ligation of macrophage iRs. […]. In vivo anti-tumor efficacies with the combination of αTLR were shown in (FIG. 9C).

[6] = system: macrophages; assay: Macrophage proinflammatory cytokine production with αTLR and cancer cell ligation; type: cell-based, human and murine; conditions: αTLR-induced, in presence of cancer cell ligation
Experimental: as §1, §2, §3

[7] = system: SIRPα and PirB; assay: iR phosphorylation and binding to SHP-1 in bone-marrow-derived macrophages; conditions: TLR agonist- and cancer ligation-induced, murine bone-marrow-derived macrophages
[8] = system: TLR7/8 overexpressing pancreatic cancer cell line; conditions: R848-stimulation; cited from earlier work
[9] = system: malignant melanoma and advanced malignancies; conditions: Phase I, cited from earlier work
[10] = molecular target: Lyn (Homo sapiens, UniProt P07948); conditions: information vendor provided; cited from earlier work
[11] = molecular target: Lck (Homo sapiens, UniProt P06239); conditions: information vendor provided; cited from earlier work
[12] = molecular target: c-Src (Homo sapiens, UniProt P12931); conditions: information vendor provided; cited from earlier work
c-Src, sequence (P12931 whole entry): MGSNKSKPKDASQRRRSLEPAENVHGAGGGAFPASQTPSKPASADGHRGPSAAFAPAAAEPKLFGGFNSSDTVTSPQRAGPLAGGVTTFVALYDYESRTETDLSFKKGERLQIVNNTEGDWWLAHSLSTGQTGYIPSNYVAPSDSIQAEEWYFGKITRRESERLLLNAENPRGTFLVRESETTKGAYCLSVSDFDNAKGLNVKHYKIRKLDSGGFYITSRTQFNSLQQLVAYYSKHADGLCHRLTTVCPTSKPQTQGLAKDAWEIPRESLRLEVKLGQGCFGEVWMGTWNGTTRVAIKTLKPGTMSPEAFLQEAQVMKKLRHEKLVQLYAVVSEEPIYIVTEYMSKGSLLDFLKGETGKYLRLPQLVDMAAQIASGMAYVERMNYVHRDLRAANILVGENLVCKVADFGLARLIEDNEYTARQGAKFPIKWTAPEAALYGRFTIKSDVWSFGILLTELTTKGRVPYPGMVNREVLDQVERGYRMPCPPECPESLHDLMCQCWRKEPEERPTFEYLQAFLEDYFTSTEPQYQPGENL

Lyn, sequence (P07948 whole entry, species assumed): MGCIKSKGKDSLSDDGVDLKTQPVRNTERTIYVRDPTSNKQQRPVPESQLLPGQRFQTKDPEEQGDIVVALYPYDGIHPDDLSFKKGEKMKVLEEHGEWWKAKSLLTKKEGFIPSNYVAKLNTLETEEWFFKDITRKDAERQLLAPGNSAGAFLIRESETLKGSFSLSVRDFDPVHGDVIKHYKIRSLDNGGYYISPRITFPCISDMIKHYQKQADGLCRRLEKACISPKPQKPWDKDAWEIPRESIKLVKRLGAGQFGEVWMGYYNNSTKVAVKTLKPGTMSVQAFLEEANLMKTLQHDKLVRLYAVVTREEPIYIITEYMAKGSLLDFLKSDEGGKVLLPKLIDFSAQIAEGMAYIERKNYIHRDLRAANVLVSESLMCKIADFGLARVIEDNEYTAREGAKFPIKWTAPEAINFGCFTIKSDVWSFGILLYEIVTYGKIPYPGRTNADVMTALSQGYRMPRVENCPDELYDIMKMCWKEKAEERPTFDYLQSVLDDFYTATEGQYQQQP
Lck, sequence (P06239 whole entry, species assumed): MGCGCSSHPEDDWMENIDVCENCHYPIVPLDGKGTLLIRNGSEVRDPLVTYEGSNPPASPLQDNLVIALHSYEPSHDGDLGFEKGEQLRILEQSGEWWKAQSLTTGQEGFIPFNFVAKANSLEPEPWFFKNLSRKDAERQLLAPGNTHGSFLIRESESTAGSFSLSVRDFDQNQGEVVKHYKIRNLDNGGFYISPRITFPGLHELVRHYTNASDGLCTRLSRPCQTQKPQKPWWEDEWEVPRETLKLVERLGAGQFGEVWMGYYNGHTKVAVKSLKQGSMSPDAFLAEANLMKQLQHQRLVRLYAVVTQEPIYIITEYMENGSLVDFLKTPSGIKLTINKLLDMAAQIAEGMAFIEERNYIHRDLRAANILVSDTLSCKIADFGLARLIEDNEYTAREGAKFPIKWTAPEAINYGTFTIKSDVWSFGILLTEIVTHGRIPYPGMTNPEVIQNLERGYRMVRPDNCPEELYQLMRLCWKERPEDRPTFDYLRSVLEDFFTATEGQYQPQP

| Compound | SIRPα cytoplasmic ITIMs phosphorylation and SIRPα association with SHP-1 [1] | expression of cell surface antigen presentation machinery [2] | macrophage SHP-1 activity (PTP activity) [5] | production of proinflammatory cytokines (TNFα, IL-6, CXCL1) [6] | suppression of LLC tumor [3] | also measured |
| --- | --- | --- | --- | --- | --- | --- |
| C/C(O)=C(\C#N)C(=O)Nc1cc(Br)ccc1Br [LFMA-13] | not | – | – | – | – | – |
| Cc1nc(Nc2ncc(C(=O)Nc3c(C)cccc3Cl)s2)cc(N2CCN(CCO)CC2)n1 [Dasatinib, N-(2-chloro-6-methylphenyl)-2-[[6-[4-(2-hydroxyethyl)-1-piperazinyl]-2-methyl-4-pyrimidinyl]amino]-5-thiazole carboxamide monohydrate] | – | marked increases | dose-dependently diminished | marked increases | – | TME immune populations (CD8+ T cells, NK cells, macrophages, MDSC) ([3]; LLC tumors, 3-day post treatment, various doses): dose-dependent effect of elevating CD8+ T cells and NK cells and reducing macrophages and MDSC; anti-tumor efficacy, alone/monotherapy [4]: not effective; angiogenesis in tumors ([4]; mouse, in vivo): inhibits; iR phosphorylation and binding to SHP-1 [7]: depleted |
| CCOCc1nc2c(N)nc3ccccc3c2n1CC(C)(C)O [R848] | – | – | – | – | – | cell proliferation [8]: increased; chemosensitivity [8]: reduced |
| O.O.O.O.O.O.O.O.O.O=C([O-])[C@@H]1[O][Sb]2([O-])([O][Sb]34([OH])[O][C@H]([C@H](O)CO)[C@H]([O]3)[C@H](C(=O)[O-])[O]4)[O][C@H]([C@H](O)CO)[C@@H]1[O]2.[Na+].[Na+].[Na+] [SSG, sodium stibogluconate] | – | – | – | – | – | effect against tumor development ([9]; in combination with interferons followed or not by chemotherapy): no effect; patients with most common toxic side-effects [9]: up to 68% |
| CC(C)(C)n1nc(-c2ccc(Cl)cc2)c2c(N)ncnc21 [PP2] | diminished | – | – | – | – | – |
| COc1cc(Nc2ncc(F)c(Nc3ccc4c(n3)NC(=O)C(C)(C)O4)n2)cc(OC)c1OC [R406] | – | elevated | capability of diminishing | Neither UM164 nor R406 enabled | effectively suppressed | intratumoral CD8+ T cell expansion [3]: induced intratumoral CD8+ T cell expansion; intratumoral macrophage antigen presentation [3]: induced intratumoral macrophages for antigen presentation |
| CC(C)CCC[C@@H](C)[C@H]1CC[C@H]2[C@@H]3CCC4C[C@H](N)CC[C@]4(C)[C@H]3CC[C@]12C (stereo partly drawn) [3Ac] | – | – | – | – | not | – |
| CN1CCN([C@H]2CC[C@H](n3cc(-c4ccc(Oc5ccccc5)cc4)c4c(N)ncnc43)CC2)CC1 [RK-20449, 7-((1R,4R)-4-(4-methylpiperazin-1-yl)cyclohexyl)-5-(4-phenoxyphenyl)-7H-pyrrolo[2,3-d]pyrimidin-4-amine] | – | marked increases | dose-dependently diminished | marked increases | – | anti-tumor efficacy, alone/monotherapy [4]: not effective; IC50 [10]: < 3 nM; IC50 [11]: < 3 nM; iR phosphorylation and binding to SHP-1 [7]: depleted |
| Cc1ccc(-c2nn(C(C)(C)C)c3ncnc(N)c23)cc1 [PP1] | diminished | – | – | – | – | – |
| Cc1nc(Nc2ncc(C(=O)Nc3cc(NC(=O)c4cccc(C(F)(F)F)c4)ccc3C)s2)cc(N2CCN(CCO)CC2)n1 [UM-164] | – | elevated | capability of diminishing | Neither UM164 nor R406 enabled | not | IC50 [12]: 2.7 nM |
